Some test systems named below: 786-0 renal; HCT-116 colon; HOP-92 NSCLC; LOX IMVI melanoma; M14 melanoma; OVCAR-5 ovarian; OVCAR-8 ovarian; SF-268 CNS; SNB-19 CNS; U251 CNS.
Assay in all cases: DTP human tumour cell line panel, 48 h

This note sets out measurements from PubChem BioAssay (NCI).

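Five concentrations, 48 hours, 96-well plates. At the GI50, growth is halved. Definition used: TGI = concentration required for complete inhibition of growth.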

For the compound `C=C1C(=O)O[C@@H]2[C@@H]3O[C@@](C)(CC/C=C(\C)CCC[C@@H]2C)[C@H](O)C[C@@H]13`, the GI50 was 7.02 µM in the test with 786-0 renal; 1.49 µM in the test with HCT-116 colon; 1.7 µM in the test on HOP-92 NSCLC; 1.77 µM in the test with LOX IMVI melanoma; 1.72 µM with M14 melanoma; 1.76 µM in the test with OVCAR-8 ovarian. Besides, the GI50 is 3.04 µM with SF-268 CNS, 14.6 µM in the test with SNB-19 CNS and 3.75 µM in the test on U251 CNS. For the same compound, the TGI in the test with 786-0 renal was determined as 20.3 µM; in the test with HCT-116 colon, 2.87 µM; in the test on HOP-92 NSCLC, 4.58 µM; in the test with LOX IMVI melanoma it was 4.03 µM; in the test with M14 melanoma it was 3.48 µM; with OVCAR-5 ovarian it was 26.7 µM. The TGI in the test on OVCAR-8 ovarian was 5.85 µM; in the test on SF-268 CNS, 10 µM; with SNB-19 CNS it was 28.6 µM; in the test on U251 CNS it was 15.6 µM.
